Results taken from ChEMBL document CHEMBL1201862, “PubChem BioAssay data set” (2004).
The source made the active and inactive calls.

Experiments:
[1] = viability of PTEN-deleted HCT116 cells – cell-based, HCT116 PTEN knockout, dose response (AID 1047); type: functional;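 note: HCT116 colon tumor cells with PTEN knocked out; cells exposed to compound for 60 hours before readout; potency for loss of cell viability measured by luminescence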
[2] = target: 5-hydroxytryptamine receptor 1A (Homo sapiens, UniProt P08908); type: functional
Sequence of 5-hydroxytryptamine receptor 1A (P08908 whole entry): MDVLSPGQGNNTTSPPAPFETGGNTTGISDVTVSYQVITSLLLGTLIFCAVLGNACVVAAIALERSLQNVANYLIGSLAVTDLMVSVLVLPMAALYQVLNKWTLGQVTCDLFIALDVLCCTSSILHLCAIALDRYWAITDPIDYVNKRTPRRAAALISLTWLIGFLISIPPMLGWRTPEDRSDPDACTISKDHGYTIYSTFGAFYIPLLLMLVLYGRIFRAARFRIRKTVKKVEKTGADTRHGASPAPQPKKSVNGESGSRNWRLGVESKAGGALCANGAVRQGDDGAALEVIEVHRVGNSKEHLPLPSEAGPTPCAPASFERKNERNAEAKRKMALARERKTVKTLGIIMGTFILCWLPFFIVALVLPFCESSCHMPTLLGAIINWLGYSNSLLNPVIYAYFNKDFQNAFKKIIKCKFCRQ

[3] = viability of HCT116 lacking mutant beta-catenin – cell-based, human colon tumor, dose response (AID 1045); type: functional;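 note: HCT116 colon tumor cells with beta catenin knocked out; cells exposed to compound for 60 hours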
[4] = target: Mu-type opioid receptor (Homo sapiens, UniProt P35372); type: functional, cell-based;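 note: U2OS cells with beta-arrestin recruitment to OPRM1 by beta-gal complementation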
[5] = target: 5-hydroxytryptamine receptor 2A (Mus musculus, UniProt P35363); type: functional, cell-based;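 note: CHO-K1 cells with tagged receptor and beta-arrestin; agonist potency measured as compound-induced activation of the receptor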
Sequence of 5-hydroxytryptamine receptor 2A (P35363 whole entry): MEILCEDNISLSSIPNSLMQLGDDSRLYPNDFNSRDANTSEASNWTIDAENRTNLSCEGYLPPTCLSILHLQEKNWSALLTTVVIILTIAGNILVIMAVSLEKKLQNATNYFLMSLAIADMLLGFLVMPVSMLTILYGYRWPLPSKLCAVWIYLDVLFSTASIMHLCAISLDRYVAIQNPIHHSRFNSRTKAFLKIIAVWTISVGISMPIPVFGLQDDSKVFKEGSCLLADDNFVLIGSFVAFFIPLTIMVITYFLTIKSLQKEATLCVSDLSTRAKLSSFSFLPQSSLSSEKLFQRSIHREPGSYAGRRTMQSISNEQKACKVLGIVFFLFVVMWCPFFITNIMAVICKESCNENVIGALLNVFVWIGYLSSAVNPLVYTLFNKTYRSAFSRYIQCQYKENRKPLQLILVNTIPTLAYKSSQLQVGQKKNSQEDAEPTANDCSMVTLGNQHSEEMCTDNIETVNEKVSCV

[6] = target: Prothrombin (Homo sapiens, UniProt P00734); experiment: Thrombin 1536 HTS Dose Response Confirmation. [Related pubchem assays: 1046 (Thrombin 1536 HTS; hits were confirmed in this assay)]; type: functional
[7] = Luminescent dose response cell-based high throughput screening assay for inhibitors of the Janus kinase 2 mutant JAK2V617F. [Related pubchem assays: 1446 (Primary screen.), 1521 (Confirmation assay.), 1486 (Counter screen.)]; type: functional
[8] = target: T1, Sphingosine 1-phosphate receptor 4 (Homo sapiens, UniProt O95977); experiment: Late stage fluorescence dose response cell-based screening assay for antagonists of the Sphingosine 1-Phosphate Receptor 4 (S1P4). [Related pubchem assays: 1524 (Confirmation screen (S1P4 antagonists).), 1510 (Primary screen (S1P4 antagonists).), 1853 (Summary AID (S1P4 antagonists).), 1692 (Dose response screen (S1P4 antagonists).)]; type: functional
T1 sequence (O95977 whole entry): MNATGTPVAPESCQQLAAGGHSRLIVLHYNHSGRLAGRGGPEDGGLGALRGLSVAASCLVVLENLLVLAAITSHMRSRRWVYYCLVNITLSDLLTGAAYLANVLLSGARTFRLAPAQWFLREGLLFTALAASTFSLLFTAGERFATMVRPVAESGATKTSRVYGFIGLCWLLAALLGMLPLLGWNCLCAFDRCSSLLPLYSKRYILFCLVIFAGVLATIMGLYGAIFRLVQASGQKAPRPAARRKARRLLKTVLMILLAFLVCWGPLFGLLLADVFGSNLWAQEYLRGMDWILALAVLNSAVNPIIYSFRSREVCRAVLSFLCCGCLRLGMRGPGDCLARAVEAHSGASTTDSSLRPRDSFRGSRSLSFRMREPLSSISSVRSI

[9] = target: T1, Sphingosine 1-phosphate receptor 4; experiment: Fluorescence dose response cell-based high throughput screening assay for antagonists of the Sphingosine 1-Phosphate Receptor 4 (S1P4). [Related pubchem assays: 1524 (Confirmation in triplicates.), 1510 (Primary screen.)]; type: functional
[10] = target: Sphingosine 1-phosphate receptor 1 (Homo sapiens, UniProt P21453); type: functional;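 note: Tango beta-arrestin reporter U2OS cells stimulated with S1P near its EC80; inhibitor potency meaning antagonism of receptor activation by the natural agonist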
[11] = target: T2, Replicative DNA helicase DnaB (Mycobacterium tuberculosis, UniProt P9WMR3); experiment: DnaB intein splicing inhibitors, dose response, biochemical, cell-free fluorescence (AID 449749); type: functional
T2 sequence (P9WMR3 whole entry): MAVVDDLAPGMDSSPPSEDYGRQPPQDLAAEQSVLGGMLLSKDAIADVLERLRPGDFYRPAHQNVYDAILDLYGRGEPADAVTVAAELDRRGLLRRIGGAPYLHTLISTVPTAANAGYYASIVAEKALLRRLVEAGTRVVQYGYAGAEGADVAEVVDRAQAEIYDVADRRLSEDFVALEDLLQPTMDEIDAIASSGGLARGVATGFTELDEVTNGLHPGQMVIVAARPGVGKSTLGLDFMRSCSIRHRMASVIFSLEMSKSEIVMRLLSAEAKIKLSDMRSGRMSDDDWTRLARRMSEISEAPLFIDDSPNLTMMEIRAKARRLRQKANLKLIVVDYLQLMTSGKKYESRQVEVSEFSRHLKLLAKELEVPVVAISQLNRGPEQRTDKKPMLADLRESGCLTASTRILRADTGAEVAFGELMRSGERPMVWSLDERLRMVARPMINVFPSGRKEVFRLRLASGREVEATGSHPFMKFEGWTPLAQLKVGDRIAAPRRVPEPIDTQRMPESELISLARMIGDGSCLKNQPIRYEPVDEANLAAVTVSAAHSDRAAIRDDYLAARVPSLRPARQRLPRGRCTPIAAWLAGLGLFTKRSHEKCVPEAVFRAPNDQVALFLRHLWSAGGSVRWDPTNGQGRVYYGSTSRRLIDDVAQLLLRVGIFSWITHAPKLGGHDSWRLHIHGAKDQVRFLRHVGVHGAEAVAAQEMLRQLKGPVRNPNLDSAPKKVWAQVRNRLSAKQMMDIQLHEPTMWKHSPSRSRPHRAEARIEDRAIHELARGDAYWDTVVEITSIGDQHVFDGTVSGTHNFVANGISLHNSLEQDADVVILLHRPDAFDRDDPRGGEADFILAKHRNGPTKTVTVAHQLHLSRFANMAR

[12] = target: Heat shock protein HSP 90-alpha (Homo sapiens, UniProt P07900); type: functional, organism-based
[13] = target: T3, Protein RecA (Mycobacterium tuberculosis, UniProt P9WHJ3); experiment: Fluorescence Cell-Free Homogeneous Dose Retest to Identify Inhibitors of RecA-Intein Splicing Activity. [Related pubchem assays (depositor defined):AID2097, AID2223, AID489010, AID492950]; type: functional
T3 sequence (P9WHJ3 whole entry): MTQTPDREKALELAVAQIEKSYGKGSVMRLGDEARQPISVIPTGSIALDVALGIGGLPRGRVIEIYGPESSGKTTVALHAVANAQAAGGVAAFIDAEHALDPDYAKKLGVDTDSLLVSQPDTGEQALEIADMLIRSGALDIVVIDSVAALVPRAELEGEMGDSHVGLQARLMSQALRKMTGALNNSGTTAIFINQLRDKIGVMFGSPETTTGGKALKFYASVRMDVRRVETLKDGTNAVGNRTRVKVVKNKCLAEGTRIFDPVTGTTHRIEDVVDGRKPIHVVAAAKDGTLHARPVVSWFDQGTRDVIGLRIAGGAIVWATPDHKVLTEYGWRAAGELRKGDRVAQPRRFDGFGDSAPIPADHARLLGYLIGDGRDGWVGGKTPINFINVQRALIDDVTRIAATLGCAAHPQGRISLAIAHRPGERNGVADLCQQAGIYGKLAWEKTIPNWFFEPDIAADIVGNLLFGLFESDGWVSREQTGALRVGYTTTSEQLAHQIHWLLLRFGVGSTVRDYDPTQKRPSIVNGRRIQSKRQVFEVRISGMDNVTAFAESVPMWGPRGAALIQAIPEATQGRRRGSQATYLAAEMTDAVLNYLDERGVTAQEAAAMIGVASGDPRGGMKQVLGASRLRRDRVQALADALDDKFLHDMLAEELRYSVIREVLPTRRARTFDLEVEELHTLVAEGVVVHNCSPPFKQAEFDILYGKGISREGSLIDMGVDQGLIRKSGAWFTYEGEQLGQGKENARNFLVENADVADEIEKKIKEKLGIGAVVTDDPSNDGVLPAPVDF

[14] = system: INS1; experiment: INS-1E survival protection against cytokine death – cell-based, luminescence, retest, dose response (AID 449756); type: functional; conditions: Rattus norvegicus;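 note: cell death triggered by IL-1 beta plus TNF-alpha plus IFN-gamma mixture; protective hits raise ATP signal compared with cytokine alone wells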
[15] = reduction of Shn3 3'UTR-driven luciferase in osteoblasts – cell-based, Clone20 osteoblasts, firefly luciferase, cherry-picked, dose response (AID 624132); type: functional;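 note: firefly luciferase luminescence from reporter carrying the Shn3 3'UTR in osteoblasts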
[16] = loss of viability in HepG2 cells – cell-based, CellTiter-Glo, cherry-picked, cytotoxicity control for Shn3 inhibitor project, dose response (AID 624134); type: functional
[17] = non-specific 3'UTR reporter inhibition in Clone20-Shn3RL – cell-based, Renilla luciferase, cherry-picked, counter-screen for Shn3 inhibitor project, dose response (AID 624133); type: functional
[18] = target: T4, Fatty acid synthase (Homo sapiens, UniProt P49327); experiment: inhibition of human FAS-TE enzyme activity – biochemical, endpoint fluorescence intensity, uHTS hits, dose response (AID 624327); type: functional;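 note: fluorescence from hydrolysis of an O-methyl fluorescein acyl ester substrate by the enzyme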
T4 sequence (P49327 whole entry): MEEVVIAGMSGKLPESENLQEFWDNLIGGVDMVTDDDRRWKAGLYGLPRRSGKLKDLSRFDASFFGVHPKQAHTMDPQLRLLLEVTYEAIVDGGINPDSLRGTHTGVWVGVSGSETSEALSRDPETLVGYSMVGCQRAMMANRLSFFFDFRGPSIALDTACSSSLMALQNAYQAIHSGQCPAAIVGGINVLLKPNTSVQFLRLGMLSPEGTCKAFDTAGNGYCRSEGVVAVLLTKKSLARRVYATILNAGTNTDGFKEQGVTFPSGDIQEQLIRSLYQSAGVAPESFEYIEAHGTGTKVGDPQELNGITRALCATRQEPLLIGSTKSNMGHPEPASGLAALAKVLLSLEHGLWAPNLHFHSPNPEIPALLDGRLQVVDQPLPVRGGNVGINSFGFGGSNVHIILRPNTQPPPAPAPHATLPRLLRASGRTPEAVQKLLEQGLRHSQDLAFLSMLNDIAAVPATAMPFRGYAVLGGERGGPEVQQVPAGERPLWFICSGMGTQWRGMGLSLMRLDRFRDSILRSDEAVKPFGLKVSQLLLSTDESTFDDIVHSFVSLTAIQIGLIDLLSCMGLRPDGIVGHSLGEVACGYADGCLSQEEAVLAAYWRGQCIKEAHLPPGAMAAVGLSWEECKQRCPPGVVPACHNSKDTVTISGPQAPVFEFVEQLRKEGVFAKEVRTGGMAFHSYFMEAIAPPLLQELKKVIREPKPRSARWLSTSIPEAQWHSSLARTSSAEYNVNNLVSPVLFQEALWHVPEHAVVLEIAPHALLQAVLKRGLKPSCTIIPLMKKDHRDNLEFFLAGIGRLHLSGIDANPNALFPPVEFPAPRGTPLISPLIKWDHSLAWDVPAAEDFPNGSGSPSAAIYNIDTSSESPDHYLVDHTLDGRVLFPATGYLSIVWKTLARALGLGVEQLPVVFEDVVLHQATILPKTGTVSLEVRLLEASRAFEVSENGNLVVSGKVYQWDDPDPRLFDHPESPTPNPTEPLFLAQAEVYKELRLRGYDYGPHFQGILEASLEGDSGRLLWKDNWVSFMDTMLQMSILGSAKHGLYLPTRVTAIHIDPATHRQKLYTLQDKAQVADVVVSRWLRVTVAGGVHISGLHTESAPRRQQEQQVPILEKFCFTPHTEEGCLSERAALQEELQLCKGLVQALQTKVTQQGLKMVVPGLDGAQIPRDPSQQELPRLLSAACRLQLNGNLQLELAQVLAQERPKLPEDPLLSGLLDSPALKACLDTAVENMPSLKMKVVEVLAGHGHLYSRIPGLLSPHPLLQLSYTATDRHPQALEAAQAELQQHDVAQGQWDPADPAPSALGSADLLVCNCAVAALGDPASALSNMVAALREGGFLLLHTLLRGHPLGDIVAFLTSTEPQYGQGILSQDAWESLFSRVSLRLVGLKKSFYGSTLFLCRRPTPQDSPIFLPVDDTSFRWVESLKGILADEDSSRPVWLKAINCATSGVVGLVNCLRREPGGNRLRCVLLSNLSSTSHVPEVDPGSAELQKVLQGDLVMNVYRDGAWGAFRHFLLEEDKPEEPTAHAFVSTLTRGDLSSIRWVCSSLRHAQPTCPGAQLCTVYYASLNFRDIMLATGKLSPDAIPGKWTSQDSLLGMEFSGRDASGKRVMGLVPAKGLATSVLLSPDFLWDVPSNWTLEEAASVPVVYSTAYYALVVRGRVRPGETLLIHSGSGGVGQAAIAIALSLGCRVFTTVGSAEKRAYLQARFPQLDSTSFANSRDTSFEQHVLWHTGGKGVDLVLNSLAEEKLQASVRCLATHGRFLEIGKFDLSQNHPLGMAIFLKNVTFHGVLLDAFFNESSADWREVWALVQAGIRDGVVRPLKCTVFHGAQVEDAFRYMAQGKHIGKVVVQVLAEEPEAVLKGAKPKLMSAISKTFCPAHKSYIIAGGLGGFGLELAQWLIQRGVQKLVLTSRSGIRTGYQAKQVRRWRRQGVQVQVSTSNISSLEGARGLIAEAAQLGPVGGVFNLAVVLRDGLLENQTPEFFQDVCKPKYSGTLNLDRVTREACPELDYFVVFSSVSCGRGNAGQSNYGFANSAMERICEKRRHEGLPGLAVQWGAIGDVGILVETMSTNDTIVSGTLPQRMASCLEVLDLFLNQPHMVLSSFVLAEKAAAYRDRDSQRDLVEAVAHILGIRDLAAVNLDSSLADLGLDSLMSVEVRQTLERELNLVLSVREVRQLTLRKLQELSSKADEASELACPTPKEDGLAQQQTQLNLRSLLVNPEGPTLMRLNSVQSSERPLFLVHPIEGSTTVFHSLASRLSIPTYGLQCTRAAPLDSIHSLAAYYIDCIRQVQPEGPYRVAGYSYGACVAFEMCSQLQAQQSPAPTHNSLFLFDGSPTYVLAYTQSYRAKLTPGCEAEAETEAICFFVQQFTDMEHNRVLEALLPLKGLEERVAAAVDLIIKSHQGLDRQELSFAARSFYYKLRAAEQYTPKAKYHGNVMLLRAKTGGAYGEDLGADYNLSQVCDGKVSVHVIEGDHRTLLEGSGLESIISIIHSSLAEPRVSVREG

[19] = target: T4, Fatty acid synthase; experiment: inhibition of human FAS-TE enzyme activity – biochemical, kinetic fluorescence intensity, dose response (AID 624326); type: functional;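 note: rate of fluorescence rise from hydrolysis of a fluorogenic O-methyl fluorescein ester substrate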
[20] = luciferase reporter signal suppression in cells – H4 neuroglioma cells, luminescence, dose response (AID 1990); type: functional, cell-based
[21] = Luminescence Cell-Based Dose Response HTS to Identify Inhibitors of 5'UTR Stem-Loop Driven Prion Protein mRNA Translation in H4 Neuroglioblastoma Cells. [Related pubchem assays: 1827 (Project Summary), 1813 (Primary HTS)]; type: functional
[22] = alpha-synuclein stem-loop luciferase translation blockers – H4 neuroglioma cells, luminescence, confirmation (AID 1988); type: functional, cell-based
[23] = HPDE-C7 pancreatic duct cell viability loss – fluorescence, HTS (AID 430); type: functional, cell-based; conditions: Homo sapiens
[24] = target: Luciferin 4-monooxygenase (Photinus pyralis, UniProt P08659); experiment: inhibition of purified Photinus pyralis luciferase – biochemical, luminescence, dose response (AID 1891)
Sequence of Luciferin 4-monooxygenase (P08659 whole entry): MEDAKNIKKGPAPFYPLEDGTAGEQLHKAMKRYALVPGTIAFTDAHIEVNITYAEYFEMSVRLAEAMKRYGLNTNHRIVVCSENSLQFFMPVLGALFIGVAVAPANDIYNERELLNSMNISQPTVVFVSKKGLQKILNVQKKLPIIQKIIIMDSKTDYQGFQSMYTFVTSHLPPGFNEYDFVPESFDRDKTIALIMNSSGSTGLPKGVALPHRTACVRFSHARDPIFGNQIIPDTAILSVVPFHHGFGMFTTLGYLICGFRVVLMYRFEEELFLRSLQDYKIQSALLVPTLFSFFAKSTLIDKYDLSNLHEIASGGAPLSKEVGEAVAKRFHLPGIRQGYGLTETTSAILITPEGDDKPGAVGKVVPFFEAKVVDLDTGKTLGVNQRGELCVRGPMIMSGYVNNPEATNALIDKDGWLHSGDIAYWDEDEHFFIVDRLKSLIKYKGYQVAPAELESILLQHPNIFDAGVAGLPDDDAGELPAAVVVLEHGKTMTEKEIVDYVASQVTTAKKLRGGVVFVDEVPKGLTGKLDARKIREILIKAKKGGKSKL

[25] = Luminescence Cell-Based Dose Confirmation HTS to Identify Inhibitors of Platelet Dense Granule Release. [Related pubchem assays: 1663 (Primary HTS), 1678 (Summary of Project)]; type: functional
[26] = Trypanosoma cruzi growth suppression in host cells – NIH3T3 host cells, beta-gal luminescence, confirmation (AID 2044); type: functional, cell-based;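 note: intracellular parasites grown in NIH/3T3 mouse fibroblasts as host cells; luminescent beta-galactosidase reporter signal from transgenic T. cruzi replicating inside host cells; inhibitors lower the luminescence signal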
[27] = microbe, parasite or virus in culture; type: functional; conditions: Mycobacterium tuberculosis
[28] = viability loss of HPDE-C7K cells – cell-based, fluorescence, HTS, primary screen (AID 431); type: functional; conditions: Homo sapiens
[29] = NIH3T3 cell viability loss – ATP luminescence, mouse fibroblasts, counter-screen, dose response (AID 2010); type: functional, cell-based;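 note: cells exposed to compound for about 90 hours before reading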
[30] = Luminescence Cell-Based Dose Retest to Confirm Inhibitors of Cancer Stem Cells. [Related pubchem assays (depositor defined):AID2717, AID2721]; type: functional; conditions: Homo sapiens
[31] = decrease of insulin promoter-GFP reporter – imaging, high-content screening, mouse beta cells (AID 1628); type: functional; conditions: MIN6
[32] = MIN6 cell viability loss – mouse insulinoma, cytotoxicity control, dose response (AID 2122); type: functional;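 note: confirmatory high-throughput counterscreen run to flag cytotoxic compounds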
[33] = Luminescence-based dose response cell-based high throughput screening assay for cytotoxic compounds using the IEC-6 intestinal epithelial cell line. [Related pubchem assays: 1858 (Summary AID.), 1825 (Counterscreen.), 1907 (Confirmation screen.)]; type: functional
[34] = target: DNA repair and recombination protein RAD54-like (Homo sapiens, UniProt Q92698); experiment: RAD54 Holliday junction migration blockers – biochemical, fluorescence, cherry-picked samples, dose series, confirmation (AID 651657); type: functional
Sequence of DNA repair and recombination protein RAD54-like (Q92698 whole entry): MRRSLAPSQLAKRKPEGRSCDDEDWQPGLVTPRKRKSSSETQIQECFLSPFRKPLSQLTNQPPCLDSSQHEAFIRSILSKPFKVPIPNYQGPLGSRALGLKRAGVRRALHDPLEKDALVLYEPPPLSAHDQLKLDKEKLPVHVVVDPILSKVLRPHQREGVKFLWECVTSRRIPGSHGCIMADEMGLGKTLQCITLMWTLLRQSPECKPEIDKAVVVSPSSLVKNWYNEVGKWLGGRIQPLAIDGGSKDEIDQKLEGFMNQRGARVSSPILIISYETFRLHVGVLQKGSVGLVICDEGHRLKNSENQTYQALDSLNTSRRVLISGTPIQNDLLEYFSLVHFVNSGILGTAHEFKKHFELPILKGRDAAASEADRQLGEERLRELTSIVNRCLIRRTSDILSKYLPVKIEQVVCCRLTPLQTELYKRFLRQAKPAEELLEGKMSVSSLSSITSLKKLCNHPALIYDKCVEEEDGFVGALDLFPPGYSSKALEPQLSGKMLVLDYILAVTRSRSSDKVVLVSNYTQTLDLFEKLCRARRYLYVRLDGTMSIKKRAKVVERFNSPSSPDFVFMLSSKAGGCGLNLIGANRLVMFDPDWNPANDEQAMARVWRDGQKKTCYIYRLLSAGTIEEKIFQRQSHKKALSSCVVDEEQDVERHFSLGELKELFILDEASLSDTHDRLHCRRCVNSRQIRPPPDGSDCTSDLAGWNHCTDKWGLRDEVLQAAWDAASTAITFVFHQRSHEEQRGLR

[35] = target: Induced myeloid leukemia cell differentiation protein Mcl-1 (Homo sapiens, UniProt Q07820); experiment: blockers of MCL1 binding to BIM peptide – biochemical, fluorescence polarization, BIM-BH3 peptide, 1536-well, dose response (AID 2217)
Sequence of Induced myeloid leukemia cell differentiation protein Mcl-1 (Q07820 whole entry): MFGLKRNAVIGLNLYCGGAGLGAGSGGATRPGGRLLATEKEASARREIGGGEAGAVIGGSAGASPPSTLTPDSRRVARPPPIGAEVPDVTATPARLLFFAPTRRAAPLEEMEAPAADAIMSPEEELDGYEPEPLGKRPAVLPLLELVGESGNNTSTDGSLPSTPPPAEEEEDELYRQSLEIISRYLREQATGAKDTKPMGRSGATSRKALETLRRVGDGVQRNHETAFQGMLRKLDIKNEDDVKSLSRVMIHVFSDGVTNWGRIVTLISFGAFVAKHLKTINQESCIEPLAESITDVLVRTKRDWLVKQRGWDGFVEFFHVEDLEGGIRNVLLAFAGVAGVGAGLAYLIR

[36] = target: Bcl-2-like protein 1 (Homo sapiens, UniProt Q07817); experiment: blockers of BCLXL peptide binding – biochemical, fluorescence polarization, 1536-well, selectivity assay for MCL1 inhibitor project, dose response (AID 2218)
[37] = target: DNA dC->dU-editing enzyme APOBEC-3A (Homo sapiens, UniProt P31941); experiment: A3A deaminase inhibition for selectivity – biochemical, dose response (AID 504722); type: functional
[38] = target: DNA dC->dU-editing enzyme APOBEC-3G (Homo sapiens, UniProt Q9HC16); experiment: Dose Response confirmation of small molecule APOBEC3G DNA Deaminase Inhibitors via a fluorescence-based single-stranded DNA deaminase assay. [Related pubchem assays (depositor defined):AID493012, AID493028]; type: functional

CCCCc1ccc2[nH]cc(CCN)c2c1
EC50 [1]: 10.6 µM (active) | EC50 [2]: 1.81 µM (active) | EC50 [3]: 12.6 µM (active) | EC50 [4]: 92.5 µM (inactive) | EC50 [5]: 13.3 µM (inactive)

COC(=O)c1c(C)nn(-c2ccccc2)c1-n1cccc1
IC50 [6]: > 50 µM (not active)

COc1ccc(NC(=NC(C)=O)Nc2nc(C)cc(C)n2)cc1OC
IC50 [6]: 2.95 µM (active)

Cc1ccccc1CS(=O)(=O)c1nnc([C@H](Cc2ccccc2)NC(=O)OC(C)(C)C)o1
IC50 [7]: 0.695 µM (active) | IC50 [8]: 3.49 µM (not active) | IC50 [9]: 1.69 µM (active) | IC50 [10]: > 49.8 µM (not active) | AC50 [11]: 3.51 µM (active) | AC50 [12]: 24.1 µM (active) | EC50 [13]: 8.54 µM (active) | AC50 [14]: 8.99 µM (active) | AC50 [15]: 1.23 µM (active) | AC50 [16]: > 70 µM (inactive) | AC50 [17]: 8.32 µM (active) | IC50 [18]: 6.74 µM (active) | IC50 [19]: 8.22 µM (active)

CCCc1cc(-c2nc(N)ncc2-c2ccc3c(c2)OCCCO3)c(O)cc1OC
EC50 [20]: 14.7 µM (active) | EC50 [21]: > 120 µM (not active) | EC50 [22]: > 120 µM (not active) | EC50 [23]: 6.37 µM (active) | EC50 [24]: > 112 µM (not active) | EC50 [25]: > 112 µM (not active) | EC50 [26]: 0.884 µM (active) | CC50 [27]: > 40 µM (active) | EC50 [28]: 5.93 µM (active) | EC50 [29]: 21 µM (active) | AC50 [30]: 3.81 µM (active)

OC1=C2C(=Nc3cc4c(cc3C2c2ccc(F)cc2)OCO4)CO1 (configuration not stated)
IC50 [31]: 1.32 µM (active) | IC50 [32]: < 0.25 µM (active) | IC50 [33]: 0.112 µM (active)

c1ccc2c(c1)oc1c(Nc3ccc(CN4CCOCC4)cc3)ncnc12
EC50 [23]: 12.8 µM (active) | EC50 [28]: 15.2 µM (active) | AC50 [34]: 65.5 µM (active)

C=CCn1c(S)nnc1CSc1ccccc1[N+](=O)[O-]
IC50 [35]: 29.6 µM (not active) | IC50 [36]: > 109 µM (not active) | IC50 [37]: 38.9 µM (active) | IC50 [38]: 2.24 µM (active)

COc1ccc(CN2CCN(c3ccccc3F)CC2)c(OC)c1
EC50 [2]: > 50 µM (not active)
